Where two headings read alike, the source gives them in different places.
How the values were obtained:
CYP2A6 = CYP2A6 (Homo sapiens, UniProt P11509); experiment: Inhibition of CYP2A6-mediated coumarin 7-hydroxylase in ultrapooled human liver microsomes; format: in vitro ADME
Experimental: (§1) The inhibitory potentials (IC50 values) of APINACA and typical CYP inhibitors on CYP 1A2, 2A6, 2C8, 2C9, 2C19, 2D6, and 3A4 activities in pooled human liver microsomes were evaluated following our previous method using a cocktail of CYP substrates, followed by LC–MS/MS [43]. […] After 3 min of preincubation at 37 °C, the reaction mixtures were incubated for 15 min at 37 °C with the addition of NADPH in a shaking water bath. The reaction was stopped by adding 100 μL of ice cold methanol containing internal standards (d9-1′-hydroxybufuralol for 1′-hydroxybufuralol, 4′-hydroxydiclofenac, 7-hydroxycoumarin, 1′-hydroxymidazolam, and 4′-hydroxymephenytoin; ^13C2, ^15N-acetaminophen for acetaminophen and N-desethylamodiaquine). The incubation mixtures were centrifuged at 13,000× g for 8 min at 4 °C, and 50 μL of each supernatant was diluted with 50 μL of water. Aliquots (5 μL) of the diluted supernatants were analyzed by LC–MS/MS. All assays were performed in triplicate, and the average values were used for subsequent calculations.
(§2) To measure the time-dependent inhibition, human liver microsomes were preincubated with the various concentrations of APINACA (final concentrations of 0.1−100 μM) and NADPH for 30 min at 37 °C. Next, the reaction mixtures were incubated with a seven-CYP probe substrate cocktail or bupropion for 15 min at 37 °C. […]

CYP2C8 = CYP2C8 (Homo sapiens, UniProt P10632); experiment: Inhibition of CYP2C8-catalyzed amodiaquine N-deethylase in ultrapooled human liver microsomes; format: in vitro ADME
Sequence of CYP2C8 (P10632 whole entry): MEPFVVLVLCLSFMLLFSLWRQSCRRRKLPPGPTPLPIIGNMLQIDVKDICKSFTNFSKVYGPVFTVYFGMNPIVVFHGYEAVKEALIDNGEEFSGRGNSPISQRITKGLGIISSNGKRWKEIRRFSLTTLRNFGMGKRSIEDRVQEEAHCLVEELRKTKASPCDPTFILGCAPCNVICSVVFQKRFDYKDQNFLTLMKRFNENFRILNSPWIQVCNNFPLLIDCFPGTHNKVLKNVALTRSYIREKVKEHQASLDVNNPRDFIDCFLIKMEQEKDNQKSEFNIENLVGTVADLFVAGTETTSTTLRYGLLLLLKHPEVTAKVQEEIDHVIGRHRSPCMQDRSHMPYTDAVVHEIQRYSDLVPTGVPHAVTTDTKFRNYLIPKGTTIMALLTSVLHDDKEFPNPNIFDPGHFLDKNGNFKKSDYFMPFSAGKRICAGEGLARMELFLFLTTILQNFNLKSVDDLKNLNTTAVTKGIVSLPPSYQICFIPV
Experimental: as §1, §2

CYP2C19 = CYP2C19 (Homo sapiens, UniProt P33261); experiment: Inhibition of CYP2C19-mediated [S]-mephenytoin 4′-hydroxylase in ultrapooled human liver microsomes; format: in vitro ADME
Sequence of CYP2C19 (P33261 whole entry): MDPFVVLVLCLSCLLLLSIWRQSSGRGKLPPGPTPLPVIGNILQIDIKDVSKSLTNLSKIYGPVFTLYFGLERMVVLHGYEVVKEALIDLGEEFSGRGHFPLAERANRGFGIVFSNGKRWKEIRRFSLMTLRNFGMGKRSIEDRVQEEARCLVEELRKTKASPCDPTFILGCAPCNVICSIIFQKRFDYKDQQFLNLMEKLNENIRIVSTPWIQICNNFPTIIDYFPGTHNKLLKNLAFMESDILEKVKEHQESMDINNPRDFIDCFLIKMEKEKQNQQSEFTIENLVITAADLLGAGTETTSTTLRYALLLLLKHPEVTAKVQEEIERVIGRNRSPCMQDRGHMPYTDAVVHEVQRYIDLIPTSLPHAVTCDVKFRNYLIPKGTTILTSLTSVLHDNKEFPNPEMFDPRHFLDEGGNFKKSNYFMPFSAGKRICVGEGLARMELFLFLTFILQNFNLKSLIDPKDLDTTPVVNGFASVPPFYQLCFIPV
Experimental: as §1, §2

BCRP = target: T1, BCRP (Homo sapiens, UniProt Q9UNQ0); experiment: B to A transport of [3-H]estrone-3-sulfate in LLC-PK1-BCRP cells; format: in vitro ADME; conditions: human, LLC-PK1-BCRP cell monolayers on filter membranes, probe [3H]estrone-3-sulfate (0.1 μM), B to A transport
T1 sequence (Q9UNQ0 1-655): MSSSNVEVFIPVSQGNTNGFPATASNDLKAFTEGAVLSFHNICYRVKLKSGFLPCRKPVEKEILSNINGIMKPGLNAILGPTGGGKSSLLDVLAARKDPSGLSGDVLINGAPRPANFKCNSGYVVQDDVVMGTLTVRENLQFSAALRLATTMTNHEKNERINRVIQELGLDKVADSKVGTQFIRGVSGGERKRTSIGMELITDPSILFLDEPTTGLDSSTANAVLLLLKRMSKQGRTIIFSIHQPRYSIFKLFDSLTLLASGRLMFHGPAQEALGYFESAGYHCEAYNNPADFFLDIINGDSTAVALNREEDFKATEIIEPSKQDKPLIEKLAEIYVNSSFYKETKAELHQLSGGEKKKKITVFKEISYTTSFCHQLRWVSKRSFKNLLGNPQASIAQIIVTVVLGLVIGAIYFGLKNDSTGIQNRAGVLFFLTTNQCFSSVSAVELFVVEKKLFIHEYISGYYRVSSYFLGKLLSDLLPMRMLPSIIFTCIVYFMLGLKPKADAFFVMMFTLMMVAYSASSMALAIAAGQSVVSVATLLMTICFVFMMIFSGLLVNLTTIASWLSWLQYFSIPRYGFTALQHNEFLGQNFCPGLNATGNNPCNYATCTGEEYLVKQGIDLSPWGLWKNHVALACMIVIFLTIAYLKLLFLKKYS

OATP1B3 = OATP1B3 (Homo sapiens, UniProt Q9NPD5)
Sequence of OATP1B3 (Q9NPD5 whole entry): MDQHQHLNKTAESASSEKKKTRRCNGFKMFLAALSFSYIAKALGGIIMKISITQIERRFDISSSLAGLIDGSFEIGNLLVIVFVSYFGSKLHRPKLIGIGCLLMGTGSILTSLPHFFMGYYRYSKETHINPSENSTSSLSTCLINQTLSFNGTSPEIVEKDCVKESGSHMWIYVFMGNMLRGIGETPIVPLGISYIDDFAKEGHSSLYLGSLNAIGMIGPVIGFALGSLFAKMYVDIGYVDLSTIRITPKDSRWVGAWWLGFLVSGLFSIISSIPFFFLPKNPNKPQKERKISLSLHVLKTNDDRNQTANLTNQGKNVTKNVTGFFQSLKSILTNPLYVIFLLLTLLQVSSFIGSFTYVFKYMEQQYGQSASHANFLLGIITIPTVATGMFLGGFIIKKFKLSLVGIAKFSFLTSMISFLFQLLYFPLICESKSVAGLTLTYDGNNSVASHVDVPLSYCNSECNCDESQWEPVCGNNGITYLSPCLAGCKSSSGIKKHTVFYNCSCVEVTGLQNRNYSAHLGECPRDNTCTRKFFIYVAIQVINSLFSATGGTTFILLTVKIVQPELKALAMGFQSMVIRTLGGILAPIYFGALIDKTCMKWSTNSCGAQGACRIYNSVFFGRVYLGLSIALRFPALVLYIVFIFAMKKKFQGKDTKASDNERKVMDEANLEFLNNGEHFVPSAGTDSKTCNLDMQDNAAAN

[1] = target: human dopamine transporter; parameters: method as in PMID 28824464; conditions: human dopamine transporter overexpressed system; read-out: Ki for inhibition of dopamine uptake; cited from earlier work
[2] = blood samples of three driving under the influence of drugs cases; cited from earlier work
UGT1A9 = target: T2, UGT1A9 (Homo sapiens, UniProt O60656); experiment: Inhibition of UGT1A9-catalyzed mycophenolic acid glucuronidation in human liver microsomes; format: in vitro ADME; parameters: […]; tissue Corning Life Sciences; conditions: IC50 UGT1A9 mycophenolic acid glucuronidation, pooled human liver microsomes
T2 sequence (O60656 26-530): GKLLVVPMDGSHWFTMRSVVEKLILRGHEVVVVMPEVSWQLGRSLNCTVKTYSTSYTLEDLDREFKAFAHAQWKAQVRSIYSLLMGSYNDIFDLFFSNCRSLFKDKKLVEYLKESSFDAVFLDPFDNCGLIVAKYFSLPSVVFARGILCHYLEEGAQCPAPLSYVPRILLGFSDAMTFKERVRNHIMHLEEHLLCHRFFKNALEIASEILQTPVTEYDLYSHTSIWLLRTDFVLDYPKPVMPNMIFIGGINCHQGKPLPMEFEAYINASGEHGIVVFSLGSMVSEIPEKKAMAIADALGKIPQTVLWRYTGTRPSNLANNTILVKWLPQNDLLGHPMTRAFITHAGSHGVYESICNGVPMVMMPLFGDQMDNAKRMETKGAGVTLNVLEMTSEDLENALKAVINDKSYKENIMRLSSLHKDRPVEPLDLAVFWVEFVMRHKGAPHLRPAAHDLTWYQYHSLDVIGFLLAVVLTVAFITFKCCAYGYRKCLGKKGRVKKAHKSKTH
Source text: 12.5 (Systat Software, Inc.; San Jose, CA, USA). […] 1.1 (Systat Software, Inc.).

Sequence of CYP2A6 (P11509 whole entry): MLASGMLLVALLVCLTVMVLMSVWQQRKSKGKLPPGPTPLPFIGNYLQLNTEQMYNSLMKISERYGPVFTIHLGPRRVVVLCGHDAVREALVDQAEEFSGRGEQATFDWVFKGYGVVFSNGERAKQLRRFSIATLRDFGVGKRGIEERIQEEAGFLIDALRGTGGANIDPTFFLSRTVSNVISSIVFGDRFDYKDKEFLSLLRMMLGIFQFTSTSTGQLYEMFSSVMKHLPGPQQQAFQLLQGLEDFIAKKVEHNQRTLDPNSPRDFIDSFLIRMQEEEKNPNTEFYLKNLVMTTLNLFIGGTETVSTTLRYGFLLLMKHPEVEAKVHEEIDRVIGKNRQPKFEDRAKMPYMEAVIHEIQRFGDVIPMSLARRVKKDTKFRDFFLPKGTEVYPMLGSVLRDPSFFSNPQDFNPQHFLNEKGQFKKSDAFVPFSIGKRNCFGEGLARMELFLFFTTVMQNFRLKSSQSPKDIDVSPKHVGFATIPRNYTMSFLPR

SMILES: CCCCCn1nc(C(=O)NC23CC4CC(CC(C4)C2)C3)c2ccccc21 [APINACA, N-(1-adamantyl)-1-pentyl-1H-indazole-3-carboxamide]
- IC50 (CYP2A6): > 100 µM
- IC50 (CYP2A6; read-out: IC50 (μM) With Preincubation, CYP2A6 coumarin 7-hydroxylase, ultrapooled human liver microsomes, 30-min preincubation with NADPH): > 100 µM
- IC50 (CYP2C8): > 100 µM
- IC50 (CYP2C8; read-out: IC50 (μM) With Preincubation, CYP2C8 amodiaquine N-deethylase, ultrapooled human liver microsomes, 30-min preincubation with NADPH): > 100 µM
- IC50 (CYP2C19): > 100 µM
- IC50 (CYP2C19; read-out: IC50 (μM) With Preincubation, CYP2C19 [S]-mephenytoin 4′-hydroxylase, ultrapooled human liver microsomes, 30-min preincubation with NADPH): > 100 µM
- IC50 (BCRP): > 100 µM
- IC50 (OATP1B3): > 250 µM
- Ki [1]: 4.6 µM
- blood concentrations [2]: 0.66 to 67.1 nM
- IC50 (UGT1A9; with 30-min preincubation, 30-min preincubation with UDPGA (○)): 30.7 µM
- IC50 (UGT1A9; without preincubation, 0.2 µM mycophenolic acid): 32.7 µM

From PMC6720883, “In Vitro Inhibitory Effects of APINACA on Human Major Cytochrome P450, UDP-Glucuronosyltransferase Enzymes, and Drug Transporters” (Molecules, 2019)
